Measurements from patent US10800791B2, “Triazole ACC inhibitors and uses thereof” (Gilead Apollo, LLC, priority 2015, dated 2020).
Converted amounts (≈) assume the structure as drawn. Where two headings read alike, the source gives them in different places.

Key:
[1] = tested on: Fusarium moniliforme (Fm); assay: Growth inhibition assay of fungal pathogens, Fm; type: cell-based; settings: for IC90: Fusarium verticillioides, 48 h, read-out: Concentration at 90% Inhibition Fm
In short: (§1)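 Pathogen growth in 17% V8 broth is measured by OD600 at 24 and 48 hours, after blank subtraction, in the presence of compound at 50, 10 and 2 ppm or 2, 0.4 and 0.08 ppm. Inhibition in percent comes from 48-hour readings against the DMSO control.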

Rhizoctonia solani (Rs) = assay: Growth inhibition assay of fungal pathogens, Rs; type: cell-based; settings: 48 h
C. parapsilosis = assay: Antifungal Activity Assay (broth microtiter MIC), C. parapsilosis; type: cell-based, Candida parapsilosis; settings: Lodderomyces parapsilosis, ATCC22019, 48 h
In short: (§2)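 Endpoint: lowest concentration visibly inhibiting growth relative to control after 48 h. Inoculum of 2.5×10^3 CFU/mL final in RPMI 1640+MOPS, prepared from overnight 35° C agar cultures; test compounds diluted in water to 128 μg/mL before plating.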

C. albicans = assay: Antifungal Activity Assay (broth microtiter MIC), C. albicans; type: cell-based, Candida albicans; settings: Candida albicans, ATCC90028, 48 h
In short: as §2

Septoria tritici (St) = assay: Growth inhibition assay of fungal pathogens, St; type: cell-based; settings: Zymoseptoria tritici, 48 h
In short: as §1

Diplodia maydis (Dm) = assay: Growth inhibition assay of fungal pathogens, Dm; type: cell-based; settings: Stenocarpella maydis, 48 h
In short: as §1

fungal (fACC2) = fungal (fACC2) (UniProt Q00955); settings: read-out: fACC2 (in vitro ACC2 Inhibition Assay, IC50), ADP-Glo, 5 nM ACC2, 20 μM ATP, 20 μM acetyl-CoA
Chain of fungal (fACC2) (Q00955 whole entry): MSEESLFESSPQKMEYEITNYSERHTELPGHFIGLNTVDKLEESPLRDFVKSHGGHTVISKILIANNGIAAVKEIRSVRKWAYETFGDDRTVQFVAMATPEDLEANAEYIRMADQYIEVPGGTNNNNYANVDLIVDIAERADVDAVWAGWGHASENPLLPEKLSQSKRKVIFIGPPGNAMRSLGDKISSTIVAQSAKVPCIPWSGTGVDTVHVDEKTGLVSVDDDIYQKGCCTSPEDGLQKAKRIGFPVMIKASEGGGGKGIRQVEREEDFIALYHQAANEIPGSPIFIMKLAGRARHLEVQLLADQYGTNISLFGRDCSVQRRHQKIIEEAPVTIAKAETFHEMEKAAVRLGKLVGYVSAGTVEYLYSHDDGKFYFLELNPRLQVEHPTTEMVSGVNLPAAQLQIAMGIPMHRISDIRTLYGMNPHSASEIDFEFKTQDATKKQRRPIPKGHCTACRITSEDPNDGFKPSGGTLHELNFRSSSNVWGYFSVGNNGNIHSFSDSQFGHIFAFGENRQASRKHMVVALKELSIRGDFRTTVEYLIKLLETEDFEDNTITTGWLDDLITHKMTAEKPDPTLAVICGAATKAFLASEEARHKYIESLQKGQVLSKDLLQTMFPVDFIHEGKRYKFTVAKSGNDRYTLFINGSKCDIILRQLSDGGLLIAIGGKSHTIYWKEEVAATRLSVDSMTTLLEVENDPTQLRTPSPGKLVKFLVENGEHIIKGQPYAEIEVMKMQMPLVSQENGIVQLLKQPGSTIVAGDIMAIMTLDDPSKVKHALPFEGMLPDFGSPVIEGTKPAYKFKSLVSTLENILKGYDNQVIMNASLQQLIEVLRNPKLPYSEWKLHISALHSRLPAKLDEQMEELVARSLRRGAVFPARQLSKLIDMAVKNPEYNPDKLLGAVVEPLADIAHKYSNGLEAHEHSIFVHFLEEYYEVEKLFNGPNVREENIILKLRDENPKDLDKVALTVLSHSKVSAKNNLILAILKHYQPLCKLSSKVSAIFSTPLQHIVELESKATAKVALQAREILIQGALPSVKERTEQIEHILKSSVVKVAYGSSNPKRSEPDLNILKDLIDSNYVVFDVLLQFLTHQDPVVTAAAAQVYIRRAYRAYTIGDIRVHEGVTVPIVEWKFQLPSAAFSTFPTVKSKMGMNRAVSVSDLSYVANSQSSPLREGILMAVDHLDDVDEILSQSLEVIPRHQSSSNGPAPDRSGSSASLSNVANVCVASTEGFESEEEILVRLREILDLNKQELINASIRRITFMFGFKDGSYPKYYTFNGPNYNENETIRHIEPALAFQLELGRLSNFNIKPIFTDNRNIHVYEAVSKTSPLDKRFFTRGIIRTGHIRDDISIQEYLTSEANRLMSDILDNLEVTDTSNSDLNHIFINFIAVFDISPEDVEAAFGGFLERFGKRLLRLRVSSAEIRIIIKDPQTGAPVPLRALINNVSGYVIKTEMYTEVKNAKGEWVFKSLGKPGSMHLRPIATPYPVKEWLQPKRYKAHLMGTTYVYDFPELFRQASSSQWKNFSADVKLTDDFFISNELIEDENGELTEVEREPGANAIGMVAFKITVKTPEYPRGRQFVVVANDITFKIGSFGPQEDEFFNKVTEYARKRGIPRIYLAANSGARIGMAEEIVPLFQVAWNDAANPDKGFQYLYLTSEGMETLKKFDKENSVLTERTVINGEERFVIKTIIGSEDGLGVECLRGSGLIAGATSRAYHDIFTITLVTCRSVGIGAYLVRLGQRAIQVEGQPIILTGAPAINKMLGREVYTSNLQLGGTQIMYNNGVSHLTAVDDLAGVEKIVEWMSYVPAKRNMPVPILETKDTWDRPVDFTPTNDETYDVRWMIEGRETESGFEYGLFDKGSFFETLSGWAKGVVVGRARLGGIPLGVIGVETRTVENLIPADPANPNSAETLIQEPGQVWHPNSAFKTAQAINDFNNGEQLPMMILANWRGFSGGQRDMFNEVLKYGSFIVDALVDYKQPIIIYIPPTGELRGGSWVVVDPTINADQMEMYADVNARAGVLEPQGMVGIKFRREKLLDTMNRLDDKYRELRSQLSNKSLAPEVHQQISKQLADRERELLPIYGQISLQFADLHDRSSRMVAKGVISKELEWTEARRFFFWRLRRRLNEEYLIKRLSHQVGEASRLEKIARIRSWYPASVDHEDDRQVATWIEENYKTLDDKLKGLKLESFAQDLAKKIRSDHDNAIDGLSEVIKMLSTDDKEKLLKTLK

[2] = tested on: Fusarium virguliforme (Fv); assay: Growth inhibition assay of fungal pathogens, Fv; type: cell-based; settings: 48 h
In short: as §1

Botrtyis cinerea (Bc) = assay: Growth inhibition assay of fungal pathogens, Bc; type: cell-based; settings: 48 h
In short: as §1

C. krusei = assay: Antifungal Activity Assay (broth microtiter MIC), C. krusei; type: cell-based, Candida krusei; settings: Pichia kudriavzevii, ATCC6258, 48 h
In short: as §2

[3] = tested on: Collectotrichum graminicola (Cg); assay: Growth inhibition assay of fungal pathogens, Cg; type: cell-based; settings: 48 h
In short: as §1

[4] = Fusarium moniliforme, growth inhibition at 48 hours vs 2% DMSO control
[5] = Fusarium moniliforme, growth inhibition vs 2% DMSO control at 48 hours
[6] = mycelial plugs, growth inhibition at 48 hours vs 2% DMSO control, read-out: Concentration at 90% Inhibition Rs
[7] = mycelial plugs, growth inhibition vs 2% DMSO control at 48 hours, read-out: Concentration at 90% Inhibition Rs
[8] = Table 3a, ATCC 22019, 3 replicates, MIC recorded at 48 h, read-out: MIC, C. parapsilosis ATCC 22019
[9] = Table 3b (additional results), ATCC 22019, 3 replicates, MIC recorded at 48 h, read-out: MIC, C. parapsilosis ATCC 22019
[10] = Table 3a, ATCC 90028, 3 replicates, MIC recorded at 48 h, read-out: MIC, C. albicans ATCC 90028
[11] = Table 3b (additional results), ATCC 90028, 3 replicates, MIC recorded at 48 h, read-out: MIC, C. albicans ATCC 90028
[12] = Septoria tritici, growth inhibition at 48 hours vs 2% DMSO control, read-out: Concentration at 90% Inhibition St
[13] = Septoria tritici, growth inhibition vs 2% DMSO control at 48 hours, read-out: Concentration at 90% Inhibition St
[14] = Diplodia maydis, growth inhibition at 48 hours vs 2% DMSO control, read-out: Concentration at 90% Inhibition Dm
[15] = Diplodia maydis, growth inhibition vs 2% DMSO control at 48 hours, read-out: Concentration at 90% Inhibition Dm
[16] = growth inhibition at 48 hours vs 2% DMSO control, read-out: Concentration at 90% Inhibition Fv
[17] = growth inhibition vs 2% DMSO control at 48 hours, read-out: Concentration at 90% Inhibition Fv
[18] = Botrtyis cinerea, growth inhibition at 48 hours vs 2% DMSO control, read-out: Concentration at 90% Inhibition Bc
[19] = Botrtyis cinerea, growth inhibition vs 2% DMSO control at 48 hours, read-out: Concentration at 90% Inhibition Bc
[20] = Table 3a, ATCC 6258, 3 replicates, MIC recorded at 48 h, read-out: MIC, C. krusei ATCC 6258
[21] = Table 3b (additional results), ATCC 6258, 3 replicates, MIC recorded at 48 h, read-out: MIC, C. krusei ATCC 6258
[22] = Collectotrichum graminicola, growth inhibition at 48 hours vs 2% DMSO control, read-out: Concentration at 90% Inhibition Cg
[23] = Collectotrichum graminicola, growth inhibition vs 2% DMSO control at 48 hours, read-out: Concentration at 90% Inhibition Cg

Row | SMILES | IC90 [1, 4] [µg/mL] | IC90 [1, 5] [µg/mL] | IC90 (Rhizoctonia solani (Rs); [6]) [µg/mL] | IC90 (Rhizoctonia solani (Rs); [7]) [µg/mL] | MIC (C. parapsilosis; [8]) [µg/mL] | MIC (C. parapsilosis; [9]) [µg/mL] | MIC (C. albicans; [10]) [µg/mL] | MIC (C. albicans; [11]) [µg/mL] | IC90 (Septoria tritici (St); [12]) [µg/mL] | IC90 (Septoria tritici (St); [13]) [µg/mL] | IC90 (Diplodia maydis (Dm); [14]) [µg/mL] | IC90 (Diplodia maydis (Dm); [15]) [µg/mL] | IC50 (fungal (fACC2); Table 2a) [nM] | IC50 (fungal (fACC2); Table 2b, additional results) [nM] | IC90 [2, 16] [µg/mL] | IC90 [2, 17] [µg/mL] | IC90 (Botrtyis cinerea (Bc); [18]) [µg/mL] | IC90 (Botrtyis cinerea (Bc); [19]) [µg/mL] | MIC (C. krusei; [20]) [µg/mL] | MIC (C. krusei; [21]) [µg/mL] | also measured
1 | COc1ccc(F)cc1[C@H](Cn1c(=O)n(C(C)(C)C(N)=O)c(=O)c2c(C)c(-n3nccn3)sc21)OC1CCOCC1 [Compound I-1] | 0.4 (≈ 0.682 µM) | 0.4 (≈ 0.682 µM) | 2 (≈ 3.41 µM) | 10 (≈ 17 µM) | 1.1 to 2 (≈ 1.88 to 3.41 µM) | 2.01 to 4 (≈ 3.43 to 6.82 µM) | 0.25 to 1 (≈ 0.426 to 1.7 µM) | 0.25 to 1 (≈ 0.426 to 1.7 µM) | > 50 | > 50 | 2 (≈ 3.41 µM) | 2 (≈ 3.41 µM) | 1 to 5 | 1 to 5 | 2 (≈ 3.41 µM) | 2 (≈ 3.41 µM) | 2 (≈ 3.41 µM) | 2 (≈ 3.41 µM) | 0.25 to 1 (≈ 0.426 to 1.7 µM) | 0.25 to 1 (≈ 0.426 to 1.7 µM) | IC90 [3, 22]: 2 µg/mL (≈ 3.41 µM); IC90 [3, 23]: 2 µg/mL (≈ 3.41 µM)
2 | COc1ccc(F)cc1[C@H](Cn1c(=O)n(C(C)(C)C(N)=O)c(=O)c2c(C)c(-n3nccn3)sc21)OC(C)C [Compound I-2, (R)-2-(1-(2-(5-fluoro-2-methoxyphenyl)-2-isopropoxyethyl)-5-methyl-2,4-dioxo-6-(2H-1,2,3-triazol-2-yl)-1,4-dihydrothieno[2,3-d]pyrimidin-3(2H)-yl)-2-methylpropanamide] | 0.4 (≈ 0.734 µM) | 0.4 (≈ 0.734 µM) | 0.08 (≈ 0.147 µM) | 0.08 (≈ 0.147 µM) | 2.1 to 4 (≈ 3.86 to 7.34 µM) | > 4.01 | 2.1 to 4 (≈ 3.86 to 7.34 µM) | 1.01 to 2 (≈ 1.85 to 3.67 µM) | > 50 | > 50 | 2 (≈ 3.67 µM) | 2 (≈ 3.67 µM) | 1 to 5 | 1 to 5 | 0.4 (≈ 0.734 µM) | 0.4 (≈ 0.734 µM) | 2 (≈ 3.67 µM) | 2 (≈ 3.67 µM) | 0.25 to 1 (≈ 0.459 to 1.84 µM) | 0.25 to 1 (≈ 0.459 to 1.84 µM) | IC90 [3, 22]: 2 µg/mL (≈ 3.67 µM); IC90 [3, 23]: 2 µg/mL (≈ 3.67 µM)
3 | CCNC(=O)C(C)(C)n1c(=O)c2c(C)c(-n3nccn3)sc2n(C[C@H](OC(C)C)c2cc(F)ccc2OC)c1=O [Compound I-3, (R)—N-ethyl-2-(1-(2-(5-fluoro-2-methoxyphenyl)-2-isopropoxyethyl)-5-methyl-2,4-dioxo-6-(2H-1,2,3-triazol-2-yl)-1,4-dihydrothieno[2,3-d]pyrimidin-3(2H)-yl)-2-methylpropanamide] | – | – | – | – | – | – | – | – | – | – | – | – | 1 to 5 | 1 to 5 | – | – | – | – | – | – | Concentration at 90% Inhibition Fm [1, 4]: AA (compound concentration of 0.08 ppm at 90% inhibition of fungal pathogens); IC90 [1]: 0.08 µg/mL (≈ 0.14 µM); IC90 (Rhizoctonia solani (Rs); read-out: Concentration at 90% Inhibition Rs, Rhizoctonia solani, mycelial plugs, growth inhibition at 48 hours vs 2% DMSO control): 0.08 µg/mL (≈ 0.14 µM); IC90 (Rhizoctonia solani (Rs); read-out: Concentration at 90% Inhibition Rs, Rhizoctonia solani, mycelial plugs, growth inhibition vs 2% DMSO control at 48 hours): 0.08 µg/mL (≈ 0.14 µM); MIC (C. parapsilosis; read-out: MIC, C. parapsilosis ATCC 22019, Table 3a, 3 replicates, MIC recorded at 48 h): 1.1 to 2 µg/mL (≈ 1.92 to 3.49 µM); MIC (C. parapsilosis; read-out: MIC, C. parapsilosis ATCC 22019, Table 3b (additional results), 3 replicates, MIC recorded at 48 h): 2.01 to 4 µg/mL (≈ 3.51 to 6.98 µM); MIC (C. albicans; read-out: MIC, C. albicans ATCC 90028, Table 3a, 3 replicates, MIC recorded at 48 h): 1.1 to 2 µg/mL (≈ 1.92 to 3.49 µM); MIC (C. albicans; read-out: MIC, C. albicans ATCC 90028, Table 3b (additional results), 3 replicates, MIC recorded at 48 h): 1.01 to 2 µg/mL (≈ 1.76 to 3.49 µM); IC90 (Septoria tritici (St); read-out: Concentration at 90% Inhibition St, Septoria tritici, growth inhibition at 48 hours vs 2% DMSO control): 10 µg/mL (≈ 17.5 µM); IC90 (Septoria tritici (St); read-out: Concentration at 90% Inhibition St, Septoria tritici, growth inhibition vs 2% DMSO control at 48 hours): > 50 µg/mL; IC90 (Diplodia maydis (Dm); read-out: Concentration at 90% Inhibition Dm, Diplodia maydis, growth inhibition at 48 hours vs 2% DMSO control): 0.4 µg/mL (≈ 0.698 µM); IC90 (Diplodia maydis (Dm); read-out: Concentration at 90% Inhibition Dm, Diplodia maydis, growth inhibition vs 2% DMSO control at 48 hours): 0.4 µg/mL (≈ 0.698 µM); IC90 ([2]; read-out: Concentration at 90% Inhibition Fv, Fusarium virguliforme, growth inhibition at 48 hours vs 2% DMSO control): 0.4 µg/mL (≈ 0.698 µM); IC90 ([2]; read-out: Concentration at 90% Inhibition Fv, Fusarium virguliforme, growth inhibition vs 2% DMSO control at 48 hours): 0.4 µg/mL (≈ 0.698 µM); IC90 (Botrtyis cinerea (Bc); read-out: Concentration at 90% Inhibition Bc, Botrtyis cinerea, growth inhibition at 48 hours vs 2% DMSO control): 0.4 µg/mL (≈ 0.698 µM); IC90 (Botrtyis cinerea (Bc); read-out: Concentration at 90% Inhibition Bc, Botrtyis cinerea, growth inhibition vs 2% DMSO control at 48 hours): 0.4 µg/mL (≈ 0.698 µM); MIC (C. krusei; read-out: MIC, C. krusei ATCC 6258, Table 3a, 3 replicates, MIC recorded at 48 h): 0.25 to 1 µg/mL (≈ 0.437 to 1.75 µM); MIC (C. krusei; read-out: MIC, C. krusei ATCC 6258, Table 3b (additional results), 3 replicates, MIC recorded at 48 h): 0.25 to 1 µg/mL (≈ 0.437 to 1.75 µM); IC90 ([3]; read-out: Concentration at 90% Inhibition Cg, Collectotrichum graminicola, growth inhibition at 48 hours vs 2% DMSO control): 0.4 µg/mL (≈ 0.698 µM); IC90 ([3]; read-out: Concentration at 90% Inhibition Cg, Collectotrichum graminicola, growth inhibition vs 2% DMSO control at 48 hours): 0.4 µg/mL (≈ 0.698 µM)
4 | COc1ccc(F)cc1[C@H](Cn1c(=O)n(C(C)(C)C(=O)N2CCCC2)c(=O)c2c(C)c(-n3nccn3)sc21)OC1CCC(=O)CC1 [Compound I-33, (R)-1-(2-(5-fluoro-2-methoxyphenyl)-2-((4-oxocyclo-hexyl)oxy)ethyl)-5-methyl-3-(2-methyl-1-oxo-1-(pyrrolidin-1-yl)propan-2-yl)-6-(2H-1,2,3-triazol-2-yl)thieno[2,3-d]pyrimidine-2,4(1H,3H)-dione] | 0.08 (≈ 0.123 µM) | 0.08 (≈ 0.123 µM) | 0.4 (≈ 0.613 µM) | 0.4 (≈ 0.613 µM) | 0.25 to 1 (≈ 0.383 to 1.53 µM) | 1.01 to 2 (≈ 1.55 to 3.06 µM) | 0.25 to 1 (≈ 0.383 to 1.53 µM) | 0.25 to 1 (≈ 0.383 to 1.53 µM) | > 50 | > 50 | 0.4 (≈ 0.613 µM) | 0.4 (≈ 0.613 µM) | – | – | 0.4 (≈ 0.613 µM) | 0.4 (≈ 0.613 µM) | 0.4 (≈ 0.613 µM) | 0.4 (≈ 0.613 µM) | 0.25 to 1 (≈ 0.383 to 1.53 µM) | 0.25 to 1 (≈ 0.383 to 1.53 µM) | IC90 [3, 22]: 0.4 µg/mL (≈ 0.613 µM); IC90 [3, 23]: 0.4 µg/mL (≈ 0.613 µM)
